Measurements taken from US20130085157A1, “ARYLSUBSTITUTED THIAZOLOTRIAZOLES AND THIAZOLOIMIDAZOLES” (priority 2011, published 2013).
pEC50: −log10 of the molar value.

Target: T1, human TGR5 bile acid receptor (Homo sapiens, UniProt Q8TDU6)
T1 construct: The full length TGR5 gene is inserted into pCMV6 vector DNA (Origene); expressed in transfected cells
T1 sequence (Q8TDU6 1-330): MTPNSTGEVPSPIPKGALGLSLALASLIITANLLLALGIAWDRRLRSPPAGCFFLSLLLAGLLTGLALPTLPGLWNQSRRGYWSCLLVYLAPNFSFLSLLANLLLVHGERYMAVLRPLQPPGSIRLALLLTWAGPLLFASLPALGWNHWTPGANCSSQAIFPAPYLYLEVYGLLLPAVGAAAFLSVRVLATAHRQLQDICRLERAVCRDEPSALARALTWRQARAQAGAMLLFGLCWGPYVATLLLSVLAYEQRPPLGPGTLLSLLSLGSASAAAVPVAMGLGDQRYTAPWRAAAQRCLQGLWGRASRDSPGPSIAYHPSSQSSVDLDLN
Test: TGR5 receptor activation, HTRF cAMP assay in 293/humanTGR5 cells
Assay type: cell-based
Conditions: activation of 293/humanTGR5 (HEK 293) cells measured by cAMP levels, 30 minutes at 37° C., relative to vehicle and 50 μM of Compound 7
Experimental: Transformed E. coli stocks containing cDNA for the full length human TGR5 bile acid receptor (IMAGE clone #5221127) are obtained from Open Biosystems. Cultures are grown in LB broth, and cDNA is purified using Qiagen mini-prep columns. The full length TGR5 gene is inserted into pCMV6 vector DNA (Origene) by ligation followed by transformation in competent E. coli. Ampicillin-resistant clones are isolated and vector DNA containing the TGR5 gene is verified by DNA sequence analysis (Sequetech). The resulting plasmid is transfected into HEK 293 cells using FuGene 6 transfection reagent and the transfected cells are grown in the presence of 1 mg/mL G418 selection antibiotic. A number of individual G418 resistant colonies are isolated by using 150 μL cloning cylinders. The resulting 293/humanTGR5 expressing cell lines are then screened for responsiveness to the natural ligand lithocholic acid. A single clone is chosen for expansion and use for screening, this clone reproducibly responds to known receptor agonists for over 30 passages. The 293/humanTGR5 cells are maintained in DMEM/F12 media supplemented with 10% fetal bovine serum (Hyclone) and 15 mM HEPES buffer (Invitrogen). Cells are passaged twice weekly and maintained at densities to assure logarithmic growth. For use in cAMP assays, cells are trypsinzied, centrifuged, and resuspended in DMEM/F12 media supplemented with 0.5% FBA and 15 mM HEPES buffer. These cells are adjusted to a density which allows distribution of 25,000 cells in 20 μL of volume to each well of a half-area 96-well plate (Greiner Bio-One). 20 μL of test compounds diluted to a 2× concentration in DMEM/F12 media with 0.5% FBS are then added to the 96-well plates, and the plates are then incubated for 30 minutes at 37° C. in a 5% CO2 atmosphere. Levels of resulting cAMP for each treatment condition are then determined by use of an HTRF cAMP assay (CisBio) following the manufactures directions. The resulting data is analyzed using IDBX XLfit software and IC50 determinations are made for each test compound by comparing cAMP levels to vehicle controls (unstimulated) and TGR5 agonist-activated cells (50 μM of Compound 7, a reported TGR5 receptor agonist, J. Med. Chem., 2009, 52 (24), pp 7962-7965). Specificity for human TGR5 agonist activity is confirmed for compounds of interest by testing them against cell lines over expressing the mouse TGR5 receptor, human GPR119 receptor, and parent cell lines followed by measurement of resulting cAMP levels. Assay responsiveness is controlled for by measuring cAMP levels induced by 50 μM Forskolin in cells, a known adenylyl […] activator.

| SMILES | pEC50 |
| --- | --- |
| c1ccc2cc(-c3csc4nnc(SCc5ccc6c(c5)OCO6)n34)ccc2c1 [Example 131] | 4.30 to 5.30 |
| Cc1ccc(N(C)C(=O)c2sc3nnc(C)n3c2-c2ccccc2)cc1Cl [Example 2, N-(3-chloro-4-methyl-phenyl)-N,3-dimethyl-5-phenyl-thiazolo[2,3-c][1,2,4]triazole-6-carboxamide] | 5.30 to 6.30 |
| Cc1cc(-c2csc3nnc(SCc4ccc5c(c4)OCO5)n23)ccc1F [Example 115] | > 6.30 |
| Fc1ccc(-c2c(-c3c(F)cccc3Cl)sc3nnc(Cc4ccc5c(c4)OCO5)n23)cc1 [Example 97] | 4.30 to 5.30 |
| COc1ccc(-c2csc3nnc(SCc4ccc5c(c4)OCO5)n23)c(Cl)c1 [Example 65] | 5.30 to 6.30 |
| CCc1sc2nnc(SCc3ccc4c(c3)OCO4)n2c1-c1ccccc1 [Example 48] | 4.30 to 5.30 |
| Clc1cccc(-c2csc3nnc(SCc4ccc5c(c4)OCO5)n23)c1Cl [Example 76] | 5.30 to 6.30 |
| c1ccc(CCSc2nnc3scc(-c4ccccc4)n23)cc1 [Example 30] | 4.30 to 5.30 |
| c1ccc(-c2csc3nnc(CCc4ccc5c(c4)OCO5)n23)cc1 [Example 4, 3-[2-(1,3-benzodioxol-5-yl)ethyl]-5-phenyl-thiazolo[2,3-c][1,2,4]triazole] | 4.30 to 5.30 |
| c1cc(-c2csc3nnc(SCc4ccc5c(c4)OCO5)n23)cc(C2CC2)c1 [Example 80] | 5.30 to 6.30 |
| Cc1ccc(N(C)C(=O)c2sc3nnc(SCc4ccc5c(c4)OCO5)n3c2-c2ccccc2)cc1Cl [Example 3, 3-(1,3-Benzodioxol-5-ylmethylsulfanyl)-N-(3-chloro-4-methyl-phenyl)-N-methyl-5-phenyl-thiazolo[2,3-c][1,2,4]triazole-6-carboxamide] | 5.30 to 6.30 |
| Fc1cccc(Cl)c1CSc1cnc2scc(-c3cccc(Cl)c3)n12 [Example 138, 5-[(2-chloro-6-fluoro-phenyl)methylsulfanyl]-3-(3-chlorophenyl)imidazo[2,1-b]thiazole] | 5.30 to 6.30 |
| c1ccc(-c2csc3nnc(Oc4ccc5c(c4)OCO5)n23)cc1 [Example 46] | 4.30 to 5.30 |
| c1ccc(-c2csc3nnc(SCc4ccc5c(c4)OCO5)n23)cc1 [Example 6, 3-(1,3-Benzodioxol-5-ylmethylsulfanyl)-5-phenyl-thiazolo[2,3-c][1,2,4]triazole] | 4.30 to 5.30 |
| Brc1cccc(-c2csc3nnc(SCc4ccc5c(c4)OCO5)n23)c1 [Example 69] | > 6.30 |
| CN(C(=O)C(C)(C)C)c1cc(F)ccc1-c1csc2nnc(SCc3ccc4c(c3)OCO4)n12 [Example 59] | 4.30 to 5.30 |
| Cc1ccc(Nc2nnc3scc(-c4cc(Cl)ccc4Cl)n23)cc1Cl [Example 14, N-(3-chloro-4-methylphenyl)-5-(2,5-dichlorophenyl)thiazolo[2,3-c][1,2,4]triazol-3-amine] | 5.30 to 6.30 |
| Fc1cccc(Cl)c1CSc1ncc2scc(-c3cccc(Cl)c3)n12 [Example 15, 5-[(2-chloro-6-fluoro-phenyl)methylsulfanyl]-3-(3-chlorophenyl)imidazo[5,1-b]thiazole] | > 6.30 |
| Clc1ccc(CSc2nnc3scc(-c4ccccc4)n23)cc1 [Example 26] | 5.30 to 6.30 |
| c1ccc(-c2csc3nnc(SCc4ccc5cnccc5c4)n23)cc1 [Example 43] | 4.30 to 5.30 |
| COc1cc(-c2csc3nnc(SCc4ccc5c(c4)OCO5)n23)ccc1F [Example 50] | 5.30 to 6.30 |
| Fc1ccc(-c2csc3nnc(SCc4ccc5c(c4)OCO5)n23)cc1 [Example 24] | 4.30 to 5.30 |
| COC(=O)c1cccc(CSc2nnc3scc(-c4cccc(Br)c4)n23)c1 [Example 66] | 5.30 to 6.30 |
| Cc1ccc(N(C)c2nnc3scc(-c4cc(Cl)ccc4Cl)n23)cc1Cl [Example 120] | 5.30 to 6.30 |
| Cc1ccc(N(C)C(=O)c2sc3nncn3c2-c2ccccc2)cc1Cl [Example 1, N-(3-chloro-4-methyl-phenyl)-N-methyl-5-phenyl-thiazolo[2,3-c][1,2,4]triazole-6-carboxamide] | 5.30 to 6.30 |
| OC(c1ccc(F)cc1)c1sc2nnc(SCc3ccc4c(c3)OCO4)n2c1-c1ccccc1 (centres unmarked) [Example 7, [3-(1,3-Benzodioxol-5-ylmethylsulfanyl)-5-phenyl-thiazolo[2,3-c][1,2,4]triazol-6-yl]-(4-fluorophenyl)methanol] | 4.30 to 5.30 |
| Fc1ccc(-c2csc3nnc(SCc4ccc5c(c4)OCO5)n23)cc1Br [Example 53] | > 6.30 |

Now from value to compound:

| pEC50 | SMILES |
| --- | --- |
| 5.30 to 6.30 | COc1ccc(Cc2sc3nnc(SCc4ccc(F)cc4F)n3c2-c2ccc(F)c(Cl)c2)cc1Cl [Example 106] |
| 4.30 to 5.30 | C=C(c1ccc(OC)c(OC)c1)c1sc2nnc(SCc3c(F)cccc3Cl)n2c1-c1ccccc1 [Example 12, 3-[(2-chloro-6-fluoro-phenyl)methylsulfanyl]-6-[1-(3,4-dimethoxyphenyl)vinyl]-5-phenyl-thiazolo[2,3-c][1,2,4]triazole] |
| 5.30 to 6.30 | COc1cc(Cl)c(Cc2sc3nnc(SCc4ccc5c(c4)OCO5)n3c2-c2cccc(Cl)c2)cc1OC [Example 127] |
| 5.30 to 6.30 | COc1ccc(Cc2sc3nnc(SCc4c(F)cccc4Cl)n3c2-c2ccc(F)cc2)cc1OC [Example 83] |
| 4.30 to 5.30 | Cc1nnc2sc(SCc3c(F)cccc3Cl)c(-c3ccccc3)n12 [Example 8, 6-[(2-Chloro-6-fluoro-phenyl)methylsulfanyl]-3-methyl-5-phenyl-thiazolo[2,3-c][1,2,4]triazole] |
| 5.30 to 6.30 | COc1cc(Br)c(Cc2sc3nnc(SCc4c(F)cccc4Cl)n3c2-c2ccc(F)c(Cl)c2)cc1OC [Example 119] |
| 4.30 to 5.30 | CC(c1ccccc1)c1sc2nnc(SCc3c(F)cccc3Cl)n2c1-c1ccc(F)cc1 (centres unmarked) [Example 98] |
| 5.30 to 6.30 | COc1cc(Br)c(Cc2sc3nnc(SCc4c(F)cccc4Cl)n3c2-c2ccc(F)c(Cl)c2)c(Br)c1OC [Example 112] |
| 5.30 to 6.30 | COc1ccc(Cc2sc3nnc(SCc4c(F)cccc4Cl)n3c2-c2ccc(F)c(Cl)c2)cc1Cl [Example 100] |
| 5.30 to 6.30 | Fc1cccc(Cl)c1CSc1nnc2scc(-c3cccc(Cl)c3)n12 [Example 117] |
| > 6.30 | COc1ccc(Cc2sc3cnc(SCc4c(F)cccc4Cl)n3c2-c2cccc(Cl)c2)cc1OC [Example 18, 5-[(2-chloro-6-fluoro-phenyl)methylsulfanyl]-3-(3-chlorophenyl)-2-[(3,4-dimethoxyphenyl)methyl]imidazo[5,1-b]thiazole] |
| 4.30 to 5.30 | Fc1cccc(Cl)c1CSc1nnc2scc(-c3ccccc3)n12 [Example 19] |
| > 6.30 | Cc1ccc(-c2csc3nnc(SCc4c(F)cccc4Cl)n23)cc1 [Example 109] |
| 5.30 to 6.30 | Cc1ccc(-c2csc3nnc(SCc4c(F)cccc4Cl)n23)cc1Cl [Example 86] |
| 5.30 to 6.30 | COc1ccc(CSc2nnc3sc(-c4c(F)cccc4Cl)c(-c4ccc(F)cc4)n23)cc1F [Example 94] |
| 5.30 to 6.30 | COc1ccc(Cc2sc3nnc(SCc4c(F)cccc4Cl)n3c2-c2cccc(Cl)c2)cc1OC [Example 17, 3-[(2-Chloro-6-fluoro-phenyl)methylsulfanyl]-5-(3-chlorophenyl)-6-[(3,4-dimethoxyphenyl)methyl]thiazolo[2,3-c][1,2,4]triazole] |
| 5.30 to 6.30 | COc1ccc(C(C)(C)c2sc3nnc(SCc4c(F)cccc4Cl)n3c2-c2ccccc2)cc1OC [Example 11, 3-[(2-chloro-6-fluoro-phenyl)methylsulfanyl]-6-[1-(3,4-dimethoxyphenyl)-1-methyl-ethyl]-5-phenyl-thiazolo[2,3-c][1,2,4]triazole] |
